Assay results: patent US11891655B2, “Probe for selectively characterizing enzymes involved in xenobiotic metabolism and method of making and using the same” (Battelle Memorial Institute, priority 2017, dated 2024)

Key:
[1] = tested on: GSTs in mouse liver cytosol
recombinant human GSTM1 = biological target: T1, recombinant human GSTM1 (Homo sapiens, UniProt P09488); test: Concentration-dependent probe labeling of recombinant GST (SDS-PAGE); assay type: binding; conditions: increasing probe concentrations, 30 minutes incubation, rhodamine click
T1 sequence (P09488 1-218): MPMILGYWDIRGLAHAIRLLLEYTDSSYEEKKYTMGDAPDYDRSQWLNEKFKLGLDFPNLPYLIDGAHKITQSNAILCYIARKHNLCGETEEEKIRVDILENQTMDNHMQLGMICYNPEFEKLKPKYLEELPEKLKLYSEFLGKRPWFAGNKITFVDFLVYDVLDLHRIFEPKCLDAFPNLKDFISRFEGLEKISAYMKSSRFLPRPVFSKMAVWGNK
Method: FIG. 15A show results from labeling glutathione transferase (GSH and GST) with probe embodiments described herein using 1 μM recombinant human GSTm1.
(§1) Concentration dependent labeling of a recombinant GST (FIG. 15A) was evaluated. The two probe embodiments, GSH-ABP-G and GST-ABP-H, were applied with increasing concentrations to the recombinant human GSTM1, a GST isoenzyme that is highly expressed in mammalian liver. […] Both probes were then applied with increasing concentrations to the cytosolic fraction of mouse liver lysate to further test probe targeting (FIG. 15B). Both probes strongly label two distinct bands at 24 kDa. The lower band is likely GSTP1, a 23.6 kDa protein highly abundant in the liver. […] To determine the specific GST isoforms targeted by each probe, LC-MS based proteomics analyses of mouse liver labeling, and labeling in the presence of specific inhibitors were performed (FIGS. 16A and 16B). […] 27 probe-targeted proteins were determined to be statistically significant targets of the GSH-ABP-G probe embodiment at a fold-change of 3 over no UV exposure controls. Of these 27 proteins, 8 are known GSTs and include members of mu, alpha, pi, theta, kappa, and zeta classes. The remaining proteins include five proteins with known GSH binding, one with known antioxidant and drug binding activity, and five proteins highly abundant in liver with no known GSH binding activity. […]

[2] = tested on: GST isoenzymes in lung lysate; test: LC-MS proteomics of probe-enriched mouse lung lysate; assay type: binding
[3] = tested on: cytosolic fraction of mouse liver lysate; assay type: binding; conditions: increasing probe concentrations; SDS-PAGE
Method: FIG. 15B show results from labeling glutathione transferase (GSH and GST) with probe embodiments described herein using 1 μM mouse liver cytosol.
as §1

[4] = tested on: GSTs (H site) in mouse liver cytosol; conditions: read-out: EC50 of inhibition of GST-ABP-H probe labeling, 10 μM probe
gut microbiota = assay type: in vivo, mouse; conditions: vancomycin in drinking water 0.1 mg/mL
[5] = tested on: glucuronidase activity in the gut microbiome; assay type: in vivo, mouse; conditions: vancomycin in drinking water 0.1 mg/mL; 4 of 5 sets of litter mates
Method: For the glucuronidase studies, female C57BL/6J mice age 6-8 weeks were purchased from Jackson Laboratories and housed with a 12 hour light/12 hour dark light cycle. Food (PMI 5002) and water were provided ad libitum. Mice were acclimated for 7 days prior to the onset of any treatment. During this time, littermates were co-housed. After this time, mice were placed in separate cages for antibiotic treatment. One set of littermates (n=5) were exposed to vancomycin in drinking water (0.1 mg/mL). The other set were given normal water. To monitor for adverse reactions to the antibiotics, researchers could not be blinded to treatment group during exposure, and were not blinded during subsequent analysis.
Microbial cells from the mouse gut were suspended in PBS with protease inhibitor (cOmplete EDTA-free Protease Inhibitor, Roche) and lysed via bead beating (Bullet Blender). 4-methylumbelliferyl-s-D-glucuronide (4-MUG; 1 mM) was added to 50 μL lysate (0.9 μg total protein) to achieve a final concentration of 500 μM. […] Fluorescence was measured using a plate reader (Molecular Biosciences), and amount of hydrolyzed substrate was calculated relative to a standard curve. Rate (mM/s) was determined via linear regression (GraphPad Prism) and activity was calculated as rate per μg protein. […]

[6] = 10 μM probe, mouse liver cytosol

labeling of recombinant human GSTM1 (recombinant human GSTM1) | number of GST isoenzymes enriched by probe in lung lysate [2] | SMILES | number of GSTs enriched by probe in mouse liver [1, 6] | selectivity of labeling in mouse liver cytosol [3] | other results
concentration-dependent targeting | 3 | C#CCNC(=O)C(Cc1ccc(C(=O)c2ccccc2)cc1)NC(=O)CSCC(NC(=O)CC[C@H](N)C(=O)O)C(=O)NCC(=O)O (some centres unmarked) [GSH-ABP-G, N5-(3-((2-((3-(4-benzoylphenyl)-1-oxo-1-(prop-2-yn-1-ylamino)propan-2-yl)amino)-2-oxoethyl)thio)-1-((carboxymethyl)amino)-1-oxopropan-2-yl)glutamine] | 8 | high selectivity | number of statistically significant probe-targeted proteins ([1]; fold-change of 3 over no UV exposure controls, 10 μM probe): 27
concentration-dependent targeting | 11 | C#CCCCC(=O)Nc1cccc2c1C(=O)C(Cl)=C(Cl)C2=O [GST-ABP-H, N-(6,7-dichloro-5,8-dioxo-5,8-dihydronaphthalen-1-yl)hex-5-ynamide] | 12 | more susceptible to off-target labeling | 
 |  | CCN1C(=O)C=CC1=O [N-ethylmaleimide, reference compound] |  |  | competition of GST-ABP-H labeling (proteomic analysis) ([1]; competitor 100 μM, mouse liver cytosol): failed to compete for binding of most GST isoenzymes
 |  | CCCCCCSC[C@H](NC(=O)CC[C@H](N)C(=O)O)C(=O)NCC(=O)O [S-hexylglutathione, reference compound] |  |  | fold change inhibition of GST-ABP-H and GSH-ABP-G labeling of GSTA3, M1, and P1 ([1]; S-hexylglutathione competed liver cytosol, p≤0.05): > 3.0; EC50 [4]: 41.5 µM
 |  | CN[C@H](CC(C)C)C(=O)N[C@H]1C(=O)N[C@@H](CC(N)=O)C(=O)N[C@H]2C(=O)N[C@H]3C(=O)N[C@H](C(=O)N[C@H](C(=O)O)c4cc(O)cc(O)c4-c4cc3ccc4O)[C@H](O)c3ccc(c(Cl)c3)Oc3cc2cc(c3O[C@@H]2O[C@H](CO)[C@@H](O)[C@H](O)[C@H]2O[C@H]2C[C@](C)(N)[C@H](O)[C@H](C)O2)Oc2ccc(cc2Cl)[C@H]1O [Vancomycin] |  |  | relative abundance of Firmicutes in gut microbiota (gut microbiota): dramatically decreased; glucuronidase activity in gut microbiome after treatment [5]: reduced, but did not eliminate
